Measured values as given in patent publication US11771709B2, “ALK protein degradation agent and anti-tumor application thereof” (ShanghaiTech University, priority 2017, dated 2023).

Columns and labels:
[1] = system: NCI-H3122 (EML4-ALK, V1) cells; experiment: Growth inhibition IC50 in lung cancer H3122 cells (Cell Titer Blue / Cell Titer Glo); conditions: Homo sapiens, NCI-H3122, H3122 cells, CTB (Cell Titer Blue)
Protocol: (§1) SR (NPM-ALK) and NCI-H2228 (EML4-ALK, V3) cells were purchased from ATCC. […] All Cells were cultured in RPMI1640 medium with 10% FBS and Penicillin-Streptomycin in 37° C. incubator with 5% CO2.
(§2) Cells were seeded at specific density in 96 well plates one day before treatment. […] Viable cells were measured via CCK8 reagent and IC50s were calculated via Prism Graphad. Experiments were repeated at least three times.

[2] = molecular target: T1, ALK protein in H3122 (EML4-ALK) cells (Homo sapiens, UniProt Q9UM73); experiment: Western blot of ALK protein level (degradation, DC50), ALK phosphorylation and downstream signaling in H3122 cells; type: cell-based; conditions: ALK protein degradation in H3122 cells
T1 construct: EML4 (Echinoderm microtubule-associated protein-like 4, Q9HC35) fusion partner, variant 1; host or cells: NCI-H3122 lung adenocarcinoma cells; the other entry of the earlier key: EML4 (Q9HC35, Echinoderm microtubule-associated protein-like 4)

SR (NPM-ALK) cells = experiment: Growth inhibition IC50 in ALCL SR cells (CCK8/WST, 72 hours); type: cell-based; conditions: 72 h, SR cells, WST; Brigatinib-based PROTAD molecules (Table 3)
Protocol: as §1, §2

[3] = molecular target: T2, ALK protein in SR (NPM-ALK) cells (Homo sapiens, UniProt Q9UM73); experiment: Western blot of ALK protein level (degradation, DC50), ALK phosphorylation and downstream signaling in SR cells; type: cell-based; conditions: for DC50: ALK protein degradation in SR cells
T2 construct: NPM (nucleophosmin, NPM1, P06748) fusion partner; host or cells: SR (ALCL) cells; the other entry of the earlier key: NPM1 (P06748, Nucleophosmin)
T2 sequence (Q9UM73 with tags, fused parts or gaps): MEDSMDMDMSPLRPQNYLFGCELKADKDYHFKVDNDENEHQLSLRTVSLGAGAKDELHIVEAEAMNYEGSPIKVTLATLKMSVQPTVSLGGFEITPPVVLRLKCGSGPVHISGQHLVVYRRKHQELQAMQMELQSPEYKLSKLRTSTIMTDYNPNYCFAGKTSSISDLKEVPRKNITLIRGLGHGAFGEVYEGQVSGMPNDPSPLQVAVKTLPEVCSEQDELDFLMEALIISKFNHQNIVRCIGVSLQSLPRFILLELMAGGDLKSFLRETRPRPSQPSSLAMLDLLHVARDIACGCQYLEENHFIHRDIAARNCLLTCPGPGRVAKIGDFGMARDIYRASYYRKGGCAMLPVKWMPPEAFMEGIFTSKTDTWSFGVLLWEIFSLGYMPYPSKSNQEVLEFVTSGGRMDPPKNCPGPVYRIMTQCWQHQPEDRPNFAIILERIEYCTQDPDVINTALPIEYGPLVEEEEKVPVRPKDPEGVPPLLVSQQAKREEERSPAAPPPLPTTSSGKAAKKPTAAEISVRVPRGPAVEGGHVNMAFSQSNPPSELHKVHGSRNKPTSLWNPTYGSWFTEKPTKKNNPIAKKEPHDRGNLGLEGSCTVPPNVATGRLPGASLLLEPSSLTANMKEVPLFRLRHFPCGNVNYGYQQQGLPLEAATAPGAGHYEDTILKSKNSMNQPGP

T1 sequence (Q9UM73 with tags, fused parts or gaps): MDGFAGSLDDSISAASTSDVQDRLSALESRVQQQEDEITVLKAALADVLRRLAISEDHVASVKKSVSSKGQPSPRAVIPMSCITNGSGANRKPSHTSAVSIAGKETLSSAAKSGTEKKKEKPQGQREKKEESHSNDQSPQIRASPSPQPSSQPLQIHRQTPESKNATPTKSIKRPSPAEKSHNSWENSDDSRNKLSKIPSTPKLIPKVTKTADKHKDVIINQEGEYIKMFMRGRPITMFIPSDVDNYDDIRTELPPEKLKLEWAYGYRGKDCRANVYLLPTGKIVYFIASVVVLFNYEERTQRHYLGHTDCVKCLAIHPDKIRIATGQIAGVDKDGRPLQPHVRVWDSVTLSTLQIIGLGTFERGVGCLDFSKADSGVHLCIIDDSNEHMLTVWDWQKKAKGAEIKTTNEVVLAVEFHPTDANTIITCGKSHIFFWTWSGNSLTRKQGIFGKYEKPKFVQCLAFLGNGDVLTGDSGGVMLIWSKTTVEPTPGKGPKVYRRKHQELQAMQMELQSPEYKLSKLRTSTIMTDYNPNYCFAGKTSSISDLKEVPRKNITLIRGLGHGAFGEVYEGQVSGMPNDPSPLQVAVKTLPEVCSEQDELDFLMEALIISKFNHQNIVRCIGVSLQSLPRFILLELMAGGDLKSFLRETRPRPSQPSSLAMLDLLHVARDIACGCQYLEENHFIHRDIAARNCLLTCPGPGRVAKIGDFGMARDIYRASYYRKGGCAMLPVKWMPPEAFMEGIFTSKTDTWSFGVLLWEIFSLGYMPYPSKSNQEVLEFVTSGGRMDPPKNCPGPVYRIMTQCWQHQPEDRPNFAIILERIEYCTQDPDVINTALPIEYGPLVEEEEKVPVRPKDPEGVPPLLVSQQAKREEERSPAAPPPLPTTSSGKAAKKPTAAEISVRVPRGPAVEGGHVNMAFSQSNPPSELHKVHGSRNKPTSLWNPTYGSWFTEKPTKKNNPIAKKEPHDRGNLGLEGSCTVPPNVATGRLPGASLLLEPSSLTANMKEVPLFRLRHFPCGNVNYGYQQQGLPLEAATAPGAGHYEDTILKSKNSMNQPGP

Row | Compound | IC50 [1] [nM] | DC50 [2] [nM] | IC50 (SR (NPM-ALK) cells) [nM] | DC50 [3] [nM] | concentration at which ALK proteins were degraded ([3]; SR cells, western blot) [nM]
1 | Cc1cc(Nc2ncc(Cl)c(Nc3ccccc3S(=O)(=O)C(C)C)n2)c(OC(C)C)cc1C1CCN(C(=O)CCCCCCCCCC(=O)N[C@H](C(=O)N2C[C@H](O)C[C@H]2C(=O)NCc2ccc(-c3scnc3C)cc2)C(C)(C)C)CC1 [SIAIS074026, (2S,4R)-1-((S)-2-(11-(4-(4-((5-chloro-4-((2-(isopropylsulfonyl)phenyl)amino)pyrimidin-2-yl)amino)-5-isopropoxy-2-methylphenyl)piperidin-1-yl)-11-oxoundecanamido)-3,3-dimethylbutanoyl)-4-hydroxy-N-(4-(4-methylthiazol-5-yl)benzyl)pyrrolidine-2-carboxamide] | 2560 | – | – | – | –
2 | COc1cc(N2CCC(NC(=O)CCCC(=O)N[C@H](C(=O)N3C[C@H](O)C[C@H]3C(=O)NCc3ccc(-c4scnc4C)cc3)C(C)(C)C)CC2)ccc1Nc1ncc(Cl)c(Nc2ccccc2P(C)(C)=O)n1 [SIAIS164144, N1-(1-(4-((5-chloro-4-((2-(dimethylphosphoryl)phenyl)amino)pyrimidin-2-yl)amino)-3-methoxyphenyl)piperidin-4-yl)-N5-((S)-1-((2S,4R)-4-hydroxy-2-((4-(4-methylthiazol-5-yl)benzyl)carbamoyl)pyrrolidin-1-yl)-3,3-dimethyl-1-oxobutan-2-yl)glutaramide] | – | 20 to 100 | 13.6 ± 9.1 | 1 to 10 | –
3 | COc1cc(N2CCC(NC(=O)CCCCC(=O)N[C@H](C(=O)N3C[C@H](O)C[C@H]3C(=O)NCc3ccc(-c4scnc4C)cc3)C(C)(C)C)CC2)ccc1Nc1ncc(Cl)c(Nc2ccccc2P(C)(C)=O)n1 [SIAIS164145, N1-(1-(4-((5-chloro-4-((2-(dimethylphosphoryl)phenyl)amino)pyrimidin-2-yl)amino)-3-methoxyphenyl)piperidin-4-yl)-N6-((S)-1-((2S,4R)-4-hydroxy-2-((4-(4-methylthiazol-5-yl)benzyl)carbamoyl)pyrrolidin-1-yl)-3,3-dimethyl-1-oxobutan-2-yl)adipamide] | – | 50 to 100 | 10.3 ± 6.3 | 1 to 10 | –
4 | COc1cc(N2CCC(NC(=O)CCCCCC(=O)N[C@H](C(=O)N3C[C@H](O)C[C@H]3C(=O)NCc3ccc(-c4scnc4C)cc3)C(C)(C)C)CC2)ccc1Nc1ncc(Cl)c(Nc2ccccc2P(C)(C)=O)n1 [SIAIS164146, N1-(1-(4-((5-chloro-4-((2-(dimethylphosphoryl)phenyl)amino)pyrimidin-2-yl)amino)-3-methoxyphenyl)piperidin-4-yl)-N7-((S)-1-((2S,4R)-4-hydroxy-2-((4-(4-methylthiazol-5-yl)benzyl)carbamoyl)pyrrolidin-1-yl)-3,3-dimethyl-1-oxobutan-2-yl)heptanediamide] | – | 0.1 to 10 | 3.6 ± 2.1 | 1 to 10 | –
5 | COc1cc(N2CCC(N3CCN(C(=O)CCC(=O)NCCNc4cccc5c4C(=O)N(C4CCC(=O)NC4=O)C5=O)CC3)CC2)ccc1Nc1ncc(Cl)c(Nc2ccccc2P(C)(C)=O)n1 (centres unmarked) [SIAIS164152, 4-(4-(1-(4-((5-chloro-4-((2-(dimethylphosphoryl)phenyl)amino)pyrimidin-2-yl)amino)-3-methoxyphenyl)piperidin-4-yl)piperazin-1-yl)-N-(2-((2-(2,6-dioxopiperidin-3-yl)-1,3-dioxoisoindolin-4-yl)amino)ethyl)-4-oxobutanamide] | – | 10 to 50 | 7.9 ± 3.5 | 0.5 to 10 | –
6 | COc1cc(N2CCC(N3CCN(C(=O)CCCc4cn(CCCC(=O)N[C@H](C(=O)N5C[C@H](O)C[C@H]5C(=O)NCc5ccc(-c6scnc6C)cc5)C(C)(C)C)nn4)CC3)CC2)ccc1Nc1ncc(Cl)c(Nc2ccccc2P(C)(C)=O)n1 [SIAIS164153, (2S,4R)-1-((S)-2-(4-(4-(4-(4-(1-(4-((5-chloro-4-((2-(dimethylphosphoryl)phenyl)amino)pyrimidin-2-yl)amino)-3-methoxyphenyl)piperidin-4-yl)piperazin-1-yl)-4-oxobutyl)-1H-1,2,3-triazol-1-yl)butanamido)-3,3-dimethylbutanoyl)-4-hydroxy-N-(4-(4-methylthiazol-5-yl)benzyl)pyrrolidine-2-carboxamide] | – | 1 to 10 | 55.9 ± 19.9 | 100 to 500 | 1
7 | COc1cc(N2CCN(C(=O)CNc3cccc4c3C(=O)N(C3CCC(=O)NC3=O)C4=O)CC2)ccc1Nc1ncc(Cl)c(Nc2ccccc2P(C)(C)=O)n1 (centres unmarked) [SIAIS1197055, 4-((2-(4-(4-((5-chloro-4-((2-(dimethylphosphoryl)phenyl)amino)pyrimidin-2-yl)amino)-3-methoxyphenyl)piperazin-1-yl)-2-oxoethyl)amino)-2-(2,6-dioxopiperidin-3-yl)isoindoline-1,3-dione] | – | 1 to 50 | ~1 | 1 to 10 | –
8 | COc1cc(N2CCN(C(=O)CCCCCCNc3cccc4c3C(=O)N(C3CCC(=O)NC3=O)C4=O)CC2)ccc1Nc1ncc(Cl)c(Nc2ccccc2P(C)(C)=O)n1 (centres unmarked) [SIAIS1197077, 4-((7-(4-(4-((5-chloro-4-((2-(dimethylphosphoryl)phenyl)amino)pyrimidin-2-yl)amino)-3-methoxyphenyl)piperazin-1-yl)-7-oxoheptyl)amino)-2-(2,6-dioxopiperidin-3-yl)isoindoline-1,3-dione] | – | 50 to 500 | 7.9 ± 4.9 | 0.1 to 0.5 | –
9 | COc1cc(N2CCN(C(=O)CCCCCCC(=O)N[C@H](C(=O)N3C[C@H](O)C[C@H]3C(=O)NCc3ccc(-c4scnc4C)cc3)C(C)(C)C)CC2)ccc1Nc1ncc(Cl)c(Nc2ccccc2P(C)(C)=O)n1 [SIAIS1197153, (2S,4R)-1-((S)-2-(8-(4-(4-((5-chloro-4-((2-(dimethylphosphoryl)phenyl)amino)pyrimidin-2-yl)amino)-3-methoxyphenyl)piperazin-1-yl)-8-oxooctanamido)-3,3-dimethylbutanoyl)-4-hydroxy-N-(4-(4-methylthiazol-5-yl)benzyl)pyrrolidine-2-carboxamide] | – | 1 to 50 | 4.6 ± 1.9 | 1 to 50 | –
10 | COc1cc(N2CCN(C(=O)CCCCCCCC(=O)N[C@H](C(=O)N3C[C@H](O)C[C@H]3C(=O)NCc3ccc(-c4scnc4C)cc3)C(C)(C)C)CC2)ccc1Nc1ncc(Cl)c(Nc2ccccc2P(C)(C)=O)n1 [SIAIS1197155, (2S,4R)-1-((S)-2-(9-(4-(4-((5-chloro-4-((2-(dimethylphosphoryl)phenyl)amino)pyrimidin-2-yl)amino)-3-methoxyphenyl)piperazin-1-yl)-9-oxononanamido)-3,3-dimethylbutanoyl)-4-hydroxy-N-(4-(4-methylthiazol-5-yl)benzyl)pyrrolidine-2-carboxamide] | – | 1 to 50 | 3.4 ± 0.5 | 1 to 10 | –
11 | COc1cc(N2CCN(C(=O)CCCCCCCCC(=O)N[C@H](C(=O)N3C[C@H](O)C[C@H]3C(=O)NCc3ccc(-c4scnc4C)cc3)C(C)(C)C)CC2)ccc1Nc1ncc(Cl)c(Nc2ccccc2P(C)(C)=O)n1 [SIAIS1197157, (2S,4R)-1-((S)-2-(10-(4-(4-((5-chloro-4-((2-(dimethylphosphoryl)phenyl)amino)pyrimidin-2-yl)amino)-3-methoxyphenyl)piperazin-1-yl)-10-oxodecanamido)-3,3-dimethylbutanoyl)-4-hydroxy-N-(4-(4-methylthiazol-5-yl)benzyl)pyrrolidine-2-carboxamide] | – | 1 to 50 | 3.1 ± 1.3 | 1 to 10 | –
